# Source: PMC11377542, “An artificial intelligence accelerated virtual screening platform for drug discovery” (Nature Communications, 2024)
# No end group written: not given here. *: point of attachment. Biotin = O=C1N[C@H]2[C@H](CS[C@H]2CCCCC(=O)*)N1
# T1: KLHDC2 (Homo sapiens, UniProt Q9Y2U9)
# T1 construct: human KLHDC2 (UniProt: Q9Y2U9, amino acid 1–362); made in house; host or cells: HighFive insect cells (baculovirus, pFastBac)
# T1 sequence (Q9Y2U9 1-362): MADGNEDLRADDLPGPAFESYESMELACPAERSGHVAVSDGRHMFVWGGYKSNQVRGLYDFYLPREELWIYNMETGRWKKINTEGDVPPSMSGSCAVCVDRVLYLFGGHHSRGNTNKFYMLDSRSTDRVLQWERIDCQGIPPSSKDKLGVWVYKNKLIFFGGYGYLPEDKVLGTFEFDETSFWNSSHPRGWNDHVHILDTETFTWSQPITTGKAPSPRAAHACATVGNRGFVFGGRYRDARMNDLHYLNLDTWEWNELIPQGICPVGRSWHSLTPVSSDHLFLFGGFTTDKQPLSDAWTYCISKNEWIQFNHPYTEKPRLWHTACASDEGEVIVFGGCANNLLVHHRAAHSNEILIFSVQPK
# T2: GST-tagged kelch repeat domain of human KLHDC2 (amino acid 1-362) (human, UniProt Q9Y2U9 1-362)
# T2 construct: kelch repeat domain of human KLHDC2, UniProt Q9Y2U9, amino acids 1-362; A TEV cleavage site lies between GST and KLHDC2; GST was not cleaved for the AlphaLISA and BLI assays; The crystallised construct (22-362, His-TSF cleaved, from E. coli) was used only with the small molecule C29; also called GST-KLHDC2; GST-tagged KLHDC2; source: HighFive insect cells (baculovirus), purified (glutathione …)
# T2 sequence (looked up): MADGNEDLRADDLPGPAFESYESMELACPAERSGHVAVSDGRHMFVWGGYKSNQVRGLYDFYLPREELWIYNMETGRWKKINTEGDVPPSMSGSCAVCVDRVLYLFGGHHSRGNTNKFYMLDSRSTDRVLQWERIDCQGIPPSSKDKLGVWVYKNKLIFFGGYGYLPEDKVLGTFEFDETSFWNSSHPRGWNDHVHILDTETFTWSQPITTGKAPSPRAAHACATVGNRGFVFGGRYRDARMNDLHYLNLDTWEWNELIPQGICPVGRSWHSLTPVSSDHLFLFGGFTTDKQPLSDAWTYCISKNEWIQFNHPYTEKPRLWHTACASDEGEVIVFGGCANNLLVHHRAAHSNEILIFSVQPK
# Target: T1, KLHDC2
# Experiment: AlphaLISA competition assay (displacement of SelK C-end degron peptide from GST-KLHDC2)
# Format: binding
# Details: IC50, competition with biotinylated 12 aa SelK degron peptide; 12-point titration, n = 3 technical replicates
# From the text: We took the top-ranked 1000 compounds and filtered out compounds with low predicted solubility, unsatisfied hydrogen bonds in the bound conformation, and followed by similarity clustering to reduce the redundancy in ligand structures. A total of 54 molecules that passed the filtering and clustering were manually examined for favorable interactions and geometries in PyMol[34]. Finally, 37 compounds were chosen for chemical synthesis. Out of these, 29 compounds were successfully synthesized (Supplementary Fig. 13) and characterized in an AlphaLISA competition assay, in which each compound was tested for its ability to compete with a diglycine-containing SelK C-end degron peptide for binding KLHDC2. […] This single digit μM IC50 was further confirmed in a competition assay using BioLayer Interferometry (Supplementary Fig. 14).
# The kelch repeat domain of human KLHDC2 (UniProt: Q9Y2U9, amino acid 1–362) was subcloned into the pFastBac vector with an N-terminally fused glutathione-S-transferase (GST), and a TEV-cleavage site. A recombinant baculovirus was produced and amplified three times in Sf9 monolayer cells to produce P4. The P4 virus was used to infect HighFive suspension insect cell cultures to produce the recombinant GST-KLHDC2 protein. The cells were harvested 2–3 days post-infection, re-suspended, and lysed in lysis buffer (20 mM Tris, pH 8.0, 200 mM NaCl, 5 mM DTT) in the presence of protease inhibitors (1 μg/ml Leupeptin, 1 μg/ml Pepstatin and 100 μM PMSF) using a microfluidizer. The GST-KLHDC2 protein was isolated from the soluble cell lysate by PierceTM Glutathione Agarose (Thermo Scientific). For AlphaLISA competition assays, the GST-tagged KLHDC2 was further purified by Q Sepharose High-Performance resin (GE Healthcare). The NaCl eluates were subjected to a Superdex-200 size exclusion chromatography column (GE Healthcare). All samples were flash-frozen in liquid nitrogen for storage prior to use. For protein crystallization, the kelch repeat domain of human KLHDC2 (amino acids 22–362) was subcloned into the pET vector with an N-terminally fused His-elongation factor Ts (TSF) and a TEV-cleavage site. The His-TSF-KLHDC2 protein was overexpressed and purified from BL21 (DE3) E. coli cells. Bacterial cells transformed with the pET-based expression plasmid were grown in LB broth to an OD600 of 0.8–1 and induced with 0.5 mM IPTG. Cells were harvested, re-suspended, and lysed in lysis buffer (20 mM Tris, pH 8.0, 200 mM NaCl, 20 mM imidazole) in the presence of protease inhibitors (1 μg mL–1 leupeptin, 1 μg mL–1 pepstatin and 100 μM phenylmethylsulfonyl fluoride) using a microfluidizer. The His-TSF-KLHDC2 protein was isolated from the soluble cell lysate by HisPurTM Ni-NTA Superflow Agarose (Thermo Fisher Scientific, Waltham, Massachusetts). After TEV cleavage of the His-TSF, KLHDC2 was further purified by Mono Q™ 5/50 GL (GE Healthcare, Chicago, Illinois). The NaCl eluates were subjected to Superdex-200 size-exclusion chromatography (GE Healthcare). Native mass spectrometry was used to confirm KLHDC2 in its apo form. The samples were concentrated by ultrafiltration to 10–22 mg mL−1. All samples were flash-frozen in liquid nitrogen for storage prior to use.
# AlphaLISA assays for determining and measuring protein-protein interactions were performed using an EnSpire reader (PerkinElmer). GST-tagged KLHDC2 was attached to anti-GST AlphaLISA acceptor beads. Synthetic N-terminal biotinylated 12 aa SelK degron peptide ([Biotin]HLRGSPPPMAGG[C) (Bio-Synthesis, Inc.) was immobilized to streptavidin-coated AlphaLISA donor beads. The donor and acceptor beads were brought into proximity by the interactions between the SelK peptide and KLHDC2. Excitation of the donor beads by a laser beam of 680 nm promotes the formation of singlet oxygen. When an acceptor bead is in close proximity, the singlet oxygen reacts with thioxene derivatives in the acceptor beads and causes the emission of 615 nm photons, which are detected as the binding signal. […]
row,Molecule,IC50
1,CC(=CC(=O)N1CCN(C(=O)Cc2cnc3ncccn23)C2CC21)C(C)C (stereo not shown) [Compound C1],488 µM
2,CN(Cc1cn(CC(=O)O)nn1)C(=O)CCCSc1ccc(Cl)cc1 [Compound C2.4],10 µM
3,C=CCN(Cc1cn(CC(=O)O)nn1)C(=O)CSc1cc(C)ccc1C [Compound C2.6],6.2 µM
4,Cc1cc(C)c(C(=O)NCC(=O)NCc2cn(CC(=O)O)nn2)s1 [Compound C2.8],1.1 µM
5,O=C(O)Cn1cc(CNC(=O)c2ccccc2SCC2CCCO2)nn1 (stereo not shown) [Compound C2.16],3.3 µM
6,C=CCN(Cc1cn(CC(=O)O)nn1)C(=O)CCSCc1ccccc1 [Compound C2.19],3.4 µM
7,CC(NC(=O)CSCc1nc2ccccc2s1)c1cn(CC(=O)O)nn1 (stereo not shown) [Compound C2.20],4.1 µM
8,C[C@H]1CN(C(=O)C(OC(C)(C)C)C(C)(C)C)C[C@H]1NC(=O)CCn1ccnn1 (stereo partly shown) [Compound C4],2070 µM
9,CC1(C)CCCC(CC(=O)NC(C)(C)CNC(=O)c2ccnnc2S)C1 (stereo not shown) [Compound C6],124 µM
10,Cc1cc(C(=O)NCCCn2cnnn2)c(C)n1Cc1ccccc1 [Compound C17],121 µM
11,COc1ccc(CN(C)C(=O)COC(=O)Cn2ccnn2)cc1OC [Compound C18],377 µM

# Target: T3, hNaV1.7 channel (Homo sapiens, UniProt Q15858)
# T3 construct: expressed in transfected cells
# T3 sequence (Q15858 whole entry): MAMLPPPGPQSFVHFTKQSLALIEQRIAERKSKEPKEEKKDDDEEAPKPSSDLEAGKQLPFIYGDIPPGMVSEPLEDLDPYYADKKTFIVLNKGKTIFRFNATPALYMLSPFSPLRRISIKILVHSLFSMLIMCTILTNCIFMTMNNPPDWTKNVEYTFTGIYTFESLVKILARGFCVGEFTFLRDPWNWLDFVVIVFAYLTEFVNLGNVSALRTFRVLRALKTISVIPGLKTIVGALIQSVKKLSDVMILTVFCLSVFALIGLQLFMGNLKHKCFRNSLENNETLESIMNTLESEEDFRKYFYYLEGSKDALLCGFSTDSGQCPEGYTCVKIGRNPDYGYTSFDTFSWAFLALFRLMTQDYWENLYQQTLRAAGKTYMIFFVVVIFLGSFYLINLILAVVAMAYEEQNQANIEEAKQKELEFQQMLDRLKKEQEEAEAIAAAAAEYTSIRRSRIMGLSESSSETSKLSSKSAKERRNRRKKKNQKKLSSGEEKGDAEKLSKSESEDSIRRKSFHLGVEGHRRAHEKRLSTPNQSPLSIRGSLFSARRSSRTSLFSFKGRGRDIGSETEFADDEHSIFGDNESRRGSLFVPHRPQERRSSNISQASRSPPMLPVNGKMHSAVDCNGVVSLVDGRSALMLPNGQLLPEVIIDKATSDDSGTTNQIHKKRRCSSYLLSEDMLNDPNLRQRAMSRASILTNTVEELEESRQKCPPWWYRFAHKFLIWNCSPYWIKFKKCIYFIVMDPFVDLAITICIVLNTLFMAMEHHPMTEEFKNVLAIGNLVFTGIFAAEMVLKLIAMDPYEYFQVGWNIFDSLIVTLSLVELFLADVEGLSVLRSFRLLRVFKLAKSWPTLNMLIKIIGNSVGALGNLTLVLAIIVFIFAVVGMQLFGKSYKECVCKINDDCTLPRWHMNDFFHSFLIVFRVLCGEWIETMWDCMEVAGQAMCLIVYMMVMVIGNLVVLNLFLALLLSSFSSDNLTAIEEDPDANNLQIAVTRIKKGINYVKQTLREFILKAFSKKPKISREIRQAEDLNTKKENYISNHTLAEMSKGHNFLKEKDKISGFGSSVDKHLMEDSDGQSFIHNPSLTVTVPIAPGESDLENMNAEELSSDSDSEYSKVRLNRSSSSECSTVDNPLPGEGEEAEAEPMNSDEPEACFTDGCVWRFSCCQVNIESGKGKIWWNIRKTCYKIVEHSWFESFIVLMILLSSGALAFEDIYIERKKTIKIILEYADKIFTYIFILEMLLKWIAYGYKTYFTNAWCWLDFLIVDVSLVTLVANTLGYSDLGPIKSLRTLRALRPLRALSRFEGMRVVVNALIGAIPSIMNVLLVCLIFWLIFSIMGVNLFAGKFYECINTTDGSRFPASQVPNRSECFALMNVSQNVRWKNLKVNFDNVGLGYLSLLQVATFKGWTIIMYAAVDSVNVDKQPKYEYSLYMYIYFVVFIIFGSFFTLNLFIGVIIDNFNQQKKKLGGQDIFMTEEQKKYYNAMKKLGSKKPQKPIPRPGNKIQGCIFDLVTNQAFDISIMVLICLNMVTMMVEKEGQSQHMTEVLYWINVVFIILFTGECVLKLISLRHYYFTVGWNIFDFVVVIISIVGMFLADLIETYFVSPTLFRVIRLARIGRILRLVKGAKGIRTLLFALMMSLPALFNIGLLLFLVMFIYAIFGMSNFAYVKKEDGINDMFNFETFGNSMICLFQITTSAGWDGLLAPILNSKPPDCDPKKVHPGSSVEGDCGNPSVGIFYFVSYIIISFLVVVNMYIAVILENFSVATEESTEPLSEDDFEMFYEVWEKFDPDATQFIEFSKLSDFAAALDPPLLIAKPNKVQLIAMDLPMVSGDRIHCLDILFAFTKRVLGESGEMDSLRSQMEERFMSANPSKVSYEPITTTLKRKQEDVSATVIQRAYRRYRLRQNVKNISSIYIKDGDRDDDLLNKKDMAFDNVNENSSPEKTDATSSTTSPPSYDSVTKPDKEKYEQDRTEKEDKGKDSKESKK
# Experiment: Whole-cell patch-clamp electrophysiology on hNaV1.7 stably expressed in HEK-293 cells
# Format: cell-based
# Details: NaV1.7 inactivated state, -70 mV holding potential; mean; read-out: inactivated-state IC50
# From the text: We first clustered the top 100,000 ranked small molecules, then applied filters on the top 1000 cluster representative molecules. A total of 160 molecules that passed the clustering and filtering were examined manually. To ensure the chemical novelty of our selection, we specifically excluded molecules that contain the known arylsulfonamide warhead or structurally resemble antihistamines or beta-receptor blockers. Finally, ten molecules with Tanimoto similarities of less than 0.33 to the known inhibitors of NaV1.7 from the ChEMBL database[43],[44] were selected for synthesis. Of these, nine were successfully synthesized (Supplementary Fig. 16), and their activities were measured using the whole-cell patch-clamp electrophysiology assay on hNaV1.7 channel stably expressed in HEK-293 cells as described in Methods.
# HEK-293 cells stably expressing human NaV1.5 and NaV1.7 were obtained from Dr. Chris Lossin (UC Davis, CA). HEK293 cells stably expressing HERG (hKv11.1) were a gift from Craig January (University of Wisconsin, Madison). Cells were cultured in complete DMEM supplemented with 10% FBS, 1% penicillin/streptomycin, and G418. All manual whole-cell patch-clamp recordings were performed at room temperature (22–24 °C) using an EPC-10 amplifier (HEKA Electronik, Lambrecht/Pfalz, Germany) on cells that were grown to 60–80% confluency, lifted with TrypLE, and plated onto poly-l-lysine–coated coverslips. External bath solution contains (in mM) 160 NaCl, 4.5 KCl, 2 CaCl2, 1 MgCl2, 10 HEPES (pH 7.4 and 305 mOsm) as. Patch pipettes were heat-pulled from soda lime glass (micro-hematocrit tubes, Kimble Chase, Rochester, NY) and had resistances of 2–3 MΩ when filled with an internal solution. Patch recordings of NaV1.5 and NaV1.7 channels were done using a cesium fluoride-based internal solution containing (in mM) 10 NaF, 110 CsF, 20 CsCl, 10 HEPES, 2 EGTA, (pH 7.4, 310 mOsm). Recordings of HERG channels were conducted using a potassium fluoride-based internal solution with added ATP (160 mM KF, 2 mM MgCl2, 10 mM EGTA, 10 mM HEPES, 4 mM NaATP, pH = 7.2 and 300–320 mOsm). Data acquisition and analysis were performed with Pulse-PulseFit (HEKA Electronik GmbH, Germany), IgorPro (WaveMetrics, Portland, OR), and Origin 9.0 software (OriginLab Corporation, Northampton, MA). To investigate specifically the inactivated state block of NaV1.7 and NaV1.5, holding potentials were set at the V1/2 of maximal inactivation (− 70 mV and − 80 mV, respectively) before voltage stepping to − 150 mV for 20 msec, and then 0 mV for 50 msec to elicit inward currents. Inhibition of currents in the resting state was recorded using a holding potential of − 120 mV. Control test currents were monitored for up to 5–10 min to ensure that the amplitude and kinetics of the response were stable. Series resistance was compensated to 80–90% and linear leak currents and capacitance artifacts were corrected using a P/4 subtraction method. The pulse interval was 0.1 Hz. For all experiments, stock solutions of the drugs were prepared fresh from 10 mM stocks in DMSO and test solutions prepared in external bath solutions were applied to individual cells into the recording bath. […] The percent reduction of HERG tail current amplitude by the compounds was determined. The percent of a block of tail current amplitude by the drugs was determined and data are shown as mean +/− SD (n = 3–4 per data point).
row,Molecule,IC50
1,"CC(C)=CCOc1ccc(CCC(C)NCC(O)CCC2CC2)cc1 (stereo not shown) [Compound Z8739905023, CC(CCC=1C=CC(OCC=C(C)C)=CC1)NCC(O)CCC2CC2]",2.3 µM

# Target: T2, GST-tagged kelch repeat domain of human …
# Experiment: AlphaScreen or HTRF; AlphaLISA competition assay: GST-KLHDC2 (3.83 nM) on anti-GST acceptor beads, biotinylated SelK peptide (5.55 nM) on streptavidin donor beads; 25 mM HEPES pH 7.5, 100 mM NaCl, 1 mM TCEP, 0.1% Tween-20, 0.05 mg/ml BSA; small-molecule competitors 15 nM to 1.5 mM
# Details: both partners purified
row,Molecule,binding result
1,"Biotin-HLRGSPPPMAGG (diglycine-containing C-end degron of SelK (selenoprotein K), 12 aa; the C-terminal mark is cut off in print; also called SelK C-end degron peptide; biotinylated 12 aa SelK peptide; source: synthetic peptide (Bio-Synthesis, Inc.)) [N-terminal biotinylated 12 aa SelK degron peptide]",binds
